Here are results for two molecules from ChEMBL document CHEMBL3352085, “In vitro evaluation of potential bitterness-masking terpenoids from the Canada goldenrod (Solidago canadensis)” (J Nat Prod, 2014).

For this assay, the target named is T1, Taste receptor type 2 member 31 (Homo sapiens, UniProt P59538).
T1 sequence (P59538 whole entry): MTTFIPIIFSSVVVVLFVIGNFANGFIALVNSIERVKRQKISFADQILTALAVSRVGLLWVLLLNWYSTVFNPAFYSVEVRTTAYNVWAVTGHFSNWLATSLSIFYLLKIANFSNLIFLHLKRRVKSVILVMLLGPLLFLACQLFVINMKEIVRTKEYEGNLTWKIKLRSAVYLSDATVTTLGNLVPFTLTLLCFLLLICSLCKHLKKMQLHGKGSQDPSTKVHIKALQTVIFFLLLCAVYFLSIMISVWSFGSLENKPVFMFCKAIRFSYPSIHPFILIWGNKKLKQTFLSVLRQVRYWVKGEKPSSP
Description: Antagonist activity at human TAS2R31 expressed in HEK-293T cells stably expressing Galpha16gust44 assessed as inhibition receptor response to saccharin by fluorescence assay. The assay is classed as cell-based.

Molecules are shown by their SMILES.

The term IC50 denotes the midpoint of a concentration-inhibition curve. For `C=C1CC[C@H]2C(C)(C)[C@@H](OC(C)=O)CC[C@]2(C)[C@H]1CC/C(C)=C/C(=O)O`, the IC50 was 8 µM. For `CC(=O)O[C@H]1CC[C@]2(C)[C@@H](CC/C(C)=C/C(=O)O)C(C)=CC[C@H]2C1(C)C`, the IC50 is above 25 µM.
